PubChem BioAssay AID248 (DTP/NCI, 2004)
“And” between values parts separate entries of the source, which are not always exact repeats. Identical values can stand only once. Inconclusive results and toxic doses are left out. Rule as the data show it: active = T/C of 150% or more; inactive = T/C below 125%.

System: L1210 leukemia ip in BDF1 mice, survival T/C
Assay: NCI In Vivo Anticancer Drug Screen. Data for tumor model L1210 Leukemia (intraperitoneal) in B6D2F1 (BDF1) mice
Conditions: endpoint: mean survival time, higher = longer survival
Method in brief: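 Tumor cells were implanted, animals were treated, and survival was followed. The result divides the treated measurement by the vehicle-control measurement.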

[1] = dose: 25.0 mg/kg/injection, schedule: Q01DX009 (ip), vehicle: saline
[2] = dose: 50.0 mg/kg/injection, schedule: Q01DX009 (ip), vehicle: saline
[3] = dose: 100.0 mg/kg/injection, schedule: Q01DX009 (ip), vehicle: saline
[4] = dose: 100.0 mg/kg/injection, schedule: Q04DX003 (ip), vehicle: saline
[5] = dose: 200.0 mg/kg/injection, schedule: Q01DX009 (ip), vehicle: saline
[6] = dose: 200.0 mg/kg/injection, schedule: Q04DX003 (ip), vehicle: saline
[7] = dose: 400.0 mg/kg/injection, schedule: Q01DX009 (ip), vehicle: saline
[8] = dose: 100.0 mg/kg/injection, schedule: Q01DX009 (ip), vehicle: Klucel (hydroxypropylcellulose) (HPC)
[9] = dose: 200.0 mg/kg/injection, schedule: Q01DX009 (ip), vehicle: Klucel (hydroxypropylcellulose) (HPC)
[10] = dose: 400.0 mg/kg/injection, schedule: Q01DX009 (ip), vehicle: Klucel (hydroxypropylcellulose) (HPC)
[11] = dose: 100.0 mg/kg/injection, schedule: Q04DX003 (ip), vehicle: Klucel (hydroxypropylcellulose) (HPC)
[12] = dose: 200.0 mg/kg/injection, schedule: Q04DX003 (ip), vehicle: Klucel (hydroxypropylcellulose) (HPC)
[13] = dose: 400.0 mg/kg/injection, schedule: Q04DX003 (ip), vehicle: Klucel (hydroxypropylcellulose) (HPC)
[14] = dose: 100.0 mg/kg/injection, schedule: Q04DX003 (ip), vehicle: saline with Tween-80
[15] = dose: 200.0 mg/kg/injection, schedule: Q04DX003 (ip), vehicle: saline with Tween-80
[16] = dose: 400.0 mg/kg/injection, schedule: Q04DX003 (ip), vehicle: saline with Tween-80
[17] = dose: 100.0 mg/kg/injection, schedule: Q04DX002 (ip), vehicle: saline with Tween-80
[18] = dose: 200.0 mg/kg/injection, schedule: Q04DX002 (ip), vehicle: saline with Tween-80
[19] = dose: 400.0 mg/kg/injection, schedule: Q04DX002 (ip), vehicle: saline with Tween-80
[20] = dose: 100.0 mg/kg/injection, schedule: Q04DX002 (ip), vehicle: Klucel (hydroxypropylcellulose) (HPC)
[21] = dose: 200.0 mg/kg/injection, schedule: Q04DX002 (ip), vehicle: Klucel (hydroxypropylcellulose) (HPC)
[22] = dose: 400.0 mg/kg/injection, schedule: Q04DX002 (ip), vehicle: Klucel (hydroxypropylcellulose) (HPC)
[23] = dose: 100.0 mg/kg/injection, schedule: Q01DX009 (ip), vehicle: saline with Tween-80
[24] = dose: 200.0 mg/kg/injection, schedule: Q01DX009 (ip), vehicle: saline with Tween-80
[25] = dose: 400.0 mg/kg/injection, schedule: Q01DX009 (ip), vehicle: saline with Tween-80

Measured: T/C

O=C(O)/C=C/Sc1ccccc1
inactive: dose: 25.0 mg/kg/injection, schedule: Q04DX003 (ip), vehicle: Klucel (hydroxypropylcellulose) (HPC) 104 % of control | dose: 50.0 mg/kg/injection, schedule: Q04DX003 (ip), vehicle: Klucel (hydroxypropylcellulose) (HPC) 102 % of control

CN(N=O)P(=O)(Nc1ccccc1)Nc1ccccc1
inactive: [1] 111 % of control | [2] 117 % of control | dose: 66.0 mg/kg/injection, schedule: Q01DX009 (ip), vehicle: other 103 % of control | dose: 100.0 mg/kg/injection, schedule: Q01DX009 (ip), vehicle: other 100 % of control | dose: 100.0 mg/kg/injection, schedule: Q04DX003 (ip), vehicle: saline sonified 122 % of control | dose: 150.0 mg/kg/injection, schedule: Q01DX009 (ip), vehicle: other 88 % of control

C#CC(C)(C)NC(=O)NC(C)(C)C
inactive: dose: 100.0 mg/kg/injection, schedule: Q04DX002 (ip), vehicle: gum acacia 112 % of control | dose: 200.0 mg/kg/injection, schedule: Q04DX002 (ip), vehicle: gum acacia 91 % of control | dose: 400.0 mg/kg/injection, schedule: Q04DX002 (ip), vehicle: gum acacia 102 % of control

O=c1[nH]c2nc(Cl)c(Cl)nc2[nH]1
inactive: [2] 98 % of control | [3] 95 % of control and 96 % of control | [4] 94 % of control | [5] 108 % of control and 116 % of control | [6] 105 % of control | dose: 300.0 mg/kg/injection, schedule: Q01DX009 (ip), vehicle: saline 92 % of control | [7] 86 % of control

COc1cc(NC(=O)Nc2ccc(Cl)cc2[N+](=O)[O-])c(OC)cc1Cl
inactive: [8] 94 % of control | [9] 94 % of control | [10] 89 % of control

O=C1c2ccccc2C(=O)C1(Br)C(Cl)c1ccccc1 (stereo not drawn)
inactive: [8] 95 % of control | [11] 96 % of control | [9] 101 % of control | [12] 103 % of control | [10] 97 % of control | [13] 97 % of control

N#Cc1ccc(Oc2ccc(C#N)cc2)cc1
inactive: [14] 100 % of control | [15] 97 % of control | [16] 101 % of control

Cl[Si](Cl)(Cl)CCc1ccccc1
inactive: [1] 104 % of control | [2] 101 % of control | [3] 90 % of control

CCOC(=N)CC(O)C(Cl)(Cl)Cl (stereo not drawn)
inactive: [17] 99 % of control | [18] 103 % of control | [19] 92 % of control

Cc1ccc(CNC(=S)Nc2ccccc2)c(C)c1
inactive: [20] 96 % of control | [21] 103 % of control | [22] 103 % of control

COC1OC(COC(C)=O)C(OC(C)=O)C1OC(C)=O (stereo not drawn)
inactive: dose: 100.0 mg/kg/injection, schedule: Q01DX001 (ip), vehicle: saline 102 % of control | dose: 200.0 mg/kg/injection, schedule: Q01DX001 (ip), vehicle: saline 104 % of control | dose: 400.0 mg/kg/injection, schedule: Q01DX001 (ip), vehicle: saline 93 % of control

O=C(Nc1ccc(Nc2ccccc2)cc1)Nc1cc(C(F)(F)F)ccc1Cl
inactive: [8] 103 % of control | [9] 93 % of control | [10] 87 % of control

O=C(c1ccc([N+](=O)[O-])cc1)c1ccccn1
inactive: [8] 103 % of control | [11] 101 % of control | [9] 102 % of control | [12] 93 % of control | [10] 115 % of control | [13] 92 % of control

O=C(Nc1ccc([N+](=O)[O-])cc1Cl)N(CC(O)c1ccccc1)C1CCCCC1 (stereo not drawn)
inactive: [3] 90 % of control | [4] 108 % of control | [5] 95 % of control | [6] 102 % of control | [7] 96 % of control | dose: 400.0 mg/kg/injection, schedule: Q04DX003 (ip), vehicle: saline 100 % of control

NC(=O)NNC1OCC(O)C(O)C1O (stereo not drawn)
inactive: [3] 90 % of control | dose: 100.0 mg/kg/injection, schedule: Q04DX003 (ip), vehicle: water 96 % of control | [5] 95 % of control | dose: 200.0 mg/kg/injection, schedule: Q04DX003 (ip), vehicle: water 96 % of control | [7] 97 % of control | dose: 400.0 mg/kg/injection, schedule: Q04DX003 (ip), vehicle: water 97 % of control

O=C(O)c1cc([N+](=O)[O-])cc([N+](=O)[O-])c1O
inactive: [17] 113 % of control | [18] 104 % of control

Cc1ccc(N=Cc2cc(Br)ccc2O)cc1Cl
inactive: [17] 107 % of control | [18] 107 % of control | [19] 96 % of control

O=C(NC(=S)Nc1cc(C(F)(F)F)ccc1Cl)c1cccc([N+](=O)[O-])c1
inactive: dose: 100.0 mg/kg/injection, schedule: Q01DX001 (ip), vehicle: saline with Tween-80 105 % of control | [23] 96 % of control and 108 % of control | [14] 99 % of control | dose: 200.0 mg/kg/injection, schedule: Q01DX001 (ip), vehicle: saline with Tween-80 103 % of control | [24] 92 % of control and 99 % of control | [18] 98 % of control and 118 % of control | [15] 103 % of control | dose: 400.0 mg/kg/injection, schedule: Q01DX001 (ip), vehicle: saline with Tween-80 87 % of control | [25] 92 % of control and 94 % of control | [19] 95 % of control and 102 % of control | [16] 89 % of control

CCCCOC(=S)SCC(=O)O
inactive: dose: 100.0 mg/kg/injection, schedule: Q04DX002 (ip), vehicle: other 103 % of control | dose: 200.0 mg/kg/injection, schedule: Q04DX002 (ip), vehicle: other 106 % of control | dose: 400.0 mg/kg/injection, schedule: Q04DX002 (ip), vehicle: other 94 % of control

COC(=O)C(CSCSC)NC(=O)/C=C/c1ccc(C)cc1 (stereo not drawn)
inactive: [23] 102 % of control | [14] 93 % of control | [24] 101 % of control | [25] 91 % of control | [16] 91 % of control

COc1ccc(OC)c(NC(=O)Oc2ccc3c(C)cc(=O)oc3c2)c1
inactive: [8] 101 % of control | [9] 97 % of control | [10] 87 % of control

NNC(=O)CCSc1ccccc1
inactive: dose: 12.5 mg/kg/injection, schedule: Q01DX009 (ip), vehicle: saline with Tween-80 89 % of control | dose: 25.0 mg/kg/injection, schedule: Q01DX009 (ip), vehicle: saline with Tween-80 99 % of control | dose: 50.0 mg/kg/injection, schedule: Q01DX009 (ip), vehicle: saline with Tween-80 105 % of control

O=C(CNC1=NCCN1)Nc1ccc(NC(=O)c2ccc(C(=O)Nc3ccc(NC(=O)CNC4=NCCN4)cc3)cc2)cc1
inactive: dose: 30.0 mg/kg/injection, schedule: Q01DX Z (ip), vehicle: water 114 % of control | dose: 40.0 mg/kg/injection, schedule: Q01DX Z (ip), vehicle: water 120 % of control | dose: 50.0 mg/kg/injection, schedule: Q01DX Z (ip), vehicle: water 121 % of control | dose: 62.5 mg/kg/injection, schedule: Q01DX Z (ip), vehicle: water 124 % of control | dose: 125.0 mg/kg/injection, schedule: Q01DX Z (ip), vehicle: water 118 % of control | dose: 250.0 mg/kg/injection, schedule: Q01DX Z (ip), vehicle: water 109 % of control | dose: 500.0 mg/kg/injection, schedule: Q01DX Z (ip), vehicle: water 106 % of control

CCn1cc(C(=O)O)c(=O)c2cccc(Cl)c21
inactive: dose: 25.0 mg/kg/injection, schedule: Q04DX002 (ip), vehicle: saline 100 % of control | dose: 50.0 mg/kg/injection, schedule: Q04DX002 (ip), vehicle: saline 107 % of control | dose: 100.0 mg/kg/injection, schedule: Q04DX002 (ip), vehicle: saline 107 % of control | dose: 200.0 mg/kg/injection, schedule: Q04DX002 (ip), vehicle: saline 99 % of control | dose: 400.0 mg/kg/injection, schedule: Q04DX002 (ip), vehicle: saline 118 % of control

CC(=O)C(=O)C1=C2CCCN2CCc2cc3c(cc21)OCO3
inactive: [20] 111 % of control | [21] 114 % of control | [22] 118 % of control
